# Source: patent publication US20240381871A1, “5-HALOALKOXY-PYRIMIDINE COMPOUNDS AS HERBICIDES” (SYNGENTA CROP PROTECTION AG, priority 2020, published 2024)
# Tests used:
# Type in all cases: in vivo
# [1] = system: Ipomoea hederacea (IPOHE); experiment: Pre-emergence herbicidal glasshouse test; conditions: rate 250, evaluated after 13 days, the values are:
# Protocol: (§1) Seeds of a variety of test species are sown in standard soil in pots, Amaranthus retoflexus (AMARE), Abutilon theophrasti (ABUTH), Setaria faberi (SETFA), Echinochloa crus-galli (ECHCG) and Ipomoea hederacea (IPOHE). After cultivation for one day (pre-emergence) or after 8 days cultivation (post-emergence) under controlled conditions in a glasshouse (at 24/16° C., day/night; 14 hours light; 65% humidity), the plants are sprayed with an aqueous spray solution derived from the formulation of the technical active ingredient in acetone/water (50:50) solution containing 0.5% Tween 20 (polyoxyethelyene sorbitan monolaurate, CAS RN 9005-64-5). Compounds are applied at 1000 g/ha unless otherwise stated. The test plants are then grown in a glasshouse under controlled conditions in a glasshouse (at 24/16° C., day/night; 14 hours light; 65% humidity) and watered twice daily. After 13 days for pre and post-emergence, the test is evaluated for the percentage damage caused to the plant.
# [2] = system: Amaranthus retoflexus (AMARE); experiment: Pre-emergence herbicidal glasshouse test; conditions: rate 250, evaluated after 13 days, the values are:
# Protocol: as §1
# [3] = system: Echinochloa crus-galli (ECHCG); experiment: Pre-emergence herbicidal glasshouse test; conditions: rate 250, evaluated after 13 days, the values are: phytotoxicity score (1-5)
# Protocol: as §1
# [4] = system: Setaria faberi (SETFA); experiment: Pre-emergence herbicidal glasshouse test; conditions: rate 250, evaluated after 13 days, the values are: phytotoxicity score (1-5)
# Protocol: as §1
# [5] = system: Abutilon theophrasti (ABUTH); experiment: Pre-emergence herbicidal glasshouse test; conditions: rate 250, evaluated after 13 days, the values are:
# Protocol: as §1
# [6] = system: Ipomea hederacea (IPOHE); experiment: Comparative post-emergence test, weed control; conditions: Ipomoea hederacea, 336 h, after 14 days, read-out: IPOHE damage (100=total damage to plant; 0=no damage)
# Protocol: (§2) Seeds of test species were sown in standard soil in pots. After cultivation for 10 days (post-emergence) under controlled conditions in a glasshouse (at 24/16° C., day/night; 14 hours light; 65% humidity), the plants were sprayed with an aqueous spray solution derived from the formulation of the technical active ingredient in 0.6 ml acetone and 45 ml formulation solution containing 10.6% Emulsogen EL (Registry number 61791-12-6), 42.2% N-methyl pyrrolidone, 42.2% dipropylene glycol monomethyl ether (CAS RN 34590-94-8) and 0.2% X-77 (CAS RN 11097-66-8). The test plants were then grown in a glasshouse under controlled conditions in a glasshouse (at 24/16° C., day/night; 14 hours light; 65% humidity) and watered twice daily. After 14 days, the test was evaluated (100=total damage to plant; 0=no damage to plant). • Weeds: Ipomea hederacea (IPOHE) • Crops: Zea mays (ZEAMX)
# [7] = system: Zea mays (ZEAMX); experiment: Comparative post-emergence test, crop damage; conditions: 336 h, after 14 days, read-out: ZEAMX damage (100=total damage to plant; 0=no damage)
# Protocol: as §2
# [8] = system: Ipomoea hederacea (IPOHE); experiment: Post-emergence herbicidal glasshouse test; conditions: rate 250, evaluated after 13 days, the values are: phytotoxicity score (1-5 scale)
# Protocol: as §1
# [9] = system: Amaranthus retoflexus (AMARE); experiment: Post-emergence herbicidal glasshouse test; conditions: rate 250, evaluated after 13 days, the values are: phytotoxicity score (1-5 scale)
# Protocol: as §1
# [10] = system: Echinochloa crus-galli (ECHCG); experiment: Post-emergence herbicidal glasshouse test; conditions: rate 250, evaluated after 13 days, the values are: phytotoxicity score (1-5 scale)
# Protocol: as §1
# [11] = system: Setaria faberi (SETFA); experiment: Post-emergence herbicidal glasshouse test; conditions: rate 250, evaluated after 13 days, the values are:
# Protocol: as §1
# [12] = system: Abutilon theophrasti (ABUTH); experiment: Post-emergence herbicidal glasshouse test; conditions: rate 250, evaluated after 13 days, the values are:
# Protocol: as §1
SMILES,Pre-emergence activity IPOHE (% phytotoxicity) [1],Pre-emergence activity AMARE (% phytotoxicity) [2],Pre-emergence activity ECHCG (% phytotoxicity) [3],Pre-emergence activity SETFA (% phytotoxicity) [4],Pre-emergence activity ABUTH (% phytotoxicity) [5],pest or weed control at 2 g/ha [6] [%],pest or weed control at 8 g/ha [6] [%],pest or weed control at 60 g/ha [6] [%],pest or weed control at 125 g/ha [6] [%],pest or weed control at 250 g/ha [6] [%],pest or weed control at 500 g/ha [6] [%],plant injury at 60 g/ha [7] [%],plant injury at 125 g/ha [7] [%],plant injury at 250 g/ha [7] [%],plant injury at 500 g/ha [7] [%],Post-emergence activity IPOHE (% phytotoxicity) [8],Post-emergence activity AMARE (% phytotoxicity) [9],Post-emergence activity ECHCG (% phytotoxicity) [10],Post-emergence activity SETFA (% phytotoxicity) [11],Post-emergence activity ABUTH (% phytotoxicity) [12],also measured
FC(F)Oc1cnc(Oc2ccccc2-c2cc(C(F)F)no2)nc1 [Compound 1.003],3,5,2,4,4,10,20,30,70,70,90,0,0,0,10,4,4,3,3,4,plant injury at 2 g/ha [7]: 0%; plant injury at 8 g/ha [7]: 0%
FC(F)Oc1cnc(Oc2cccc(Cl)c2-c2cc(C(F)F)no2)nc1 [Compound 1.004],5,5,4,5,4,20,50,70,70,90,90,0,10,20,40,4,4,4,4,4,plant injury at 2 g/ha [7]: 0%; plant injury at 8 g/ha [7]: 0%
FC(F)Oc1cnc(Oc2cccc(Br)c2-c2cc(C(F)F)no2)nc1 [Compound 1.005],4,5,3,5,3,30,20,40,70,90,80,10,20,30,30,5,4,3,4,4,
